Test results: patent publication US10358434B2, “2-(3-pyridinyl)-1H-benzimidazole derivative compound and medicament containing same” (NIHON MEDI-PHYSICS CO., LTD., priority 2014, dated 2019)

What was measured:
[1] = Plasma stability evaluation (TLC analysis); type: in vitro ADME; settings: 37° C., 60 minutes, TLC analysis
Outline: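 TLC analysis, using each compound's synthesis conditions, judged stability after methanol was added and samples were centrifuged to remove protein. Beforehand, each tracer had spent 60 minutes at 37° C in pooled heparinized normal human plasma.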

[2] = system: human adrenal gland section expressing aldosterone-producing adenoma; assay: In vitro autoradiography using human adrenal adenoma; type: binding; settings: section of FIG. 17(a)
Outline: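 Autoradiography readout: PSL in equal-sized ROIs over adenoma (B2) and normal adrenal cortex (B1), expressed as B2/B1 and decay-corrected using half-life, applied activity and plate contact time. Tissue was surgically excised human adrenal, frozen and cut at 7 μm, incubated 10 min with 5-33 kBq/mL tracer in BSA-containing PBS, then imaged after 16-20 h exposure.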

[3] = In vivo kinetics experiment (radioactivity distribution); set-up: species or system Wistar male rat; settings: rat, caudal vein
Outline: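 Tissue radioactivity (% ID/g) and adrenal-to-blood, liver, kidney, small intestine, muscle and fat ratios determined at 10, 30 and 60 min post-dose. Tracers (approximately 1 to 3.7 MBq, saline with 1 w/v % ascorbic acid) injected i.v. into caudal vein of anesthetized 9-week male Wistar rats; organs excised, weighed, counted.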

Radiochemical purity after incubation in human plasma [1]: 82%
Adrenal gland/blood ratio of radioactivity accumulation ([3]; 10 min after administration): 28.34 ± 5.95
Adrenal gland/fat ratio of radioactivity accumulation ([3]; 10 min after administration): 89.23 ± 14.22
Adrenal gland/kidney ratio of radioactivity accumulation ([3]; 10 min after administration): 5.85 ± 1.07
Adrenal gland/liver ratio of radioactivity accumulation ([3]; 10 min after administration): 3.02 ± 0.41
Adrenal gland/muscle ratio of radioactivity accumulation ([3]; 10 min after administration): 54.21 ± 12.64
Adrenal gland/small intestine ratio of radioactivity accumulation ([3]; 10 min after administration): 6.95 ± 1.48
Radioactivity distribution Adrenal gland ([3]; 10 min after administration): 9.09 ± 2.28 % ID/g
Radioactivity distribution Bladder (including urine) ([3]; 10 min after administration): 0.32 ± 0.15 % ID/g
Radioactivity distribution Blood ([3]; 10 min after administration): 0.32 ± 0.01 % ID/g
Radioactivity distribution Fat ([3]; 10 min after administration): 0.10 ± 0.01 % ID/g
Radioactivity distribution Heart ([3]; 10 min after administration): 0.63 ± 0.07 % ID/g
Radioactivity distribution Kidney ([3]; 10 min after administration): 1.54 ± 0.11 % ID/g
Radioactivity distribution Large intestine ([3]; 10 min after administration): 0.19 ± 0.00 % ID/g
Radioactivity distribution Liver ([3]; 10 min after administration): 2.98 ± 0.35 % ID/g
Radioactivity distribution Lung ([3]; 10 min after administration): 1.06 ± 0.09 % ID/g
Radioactivity distribution Muscle (lower limbs) ([3]; 10 min after administration): 0.17 ± 0.00 % ID/g
Radioactivity distribution Remaining whole body ([3]; 10 min after administration): 0.27 ± 0.01 % ID/g
Radioactivity distribution Small intestine ([3]; 10 min after administration): 1.30 ± 0.05 % ID/g
Radioactivity distribution Spleen ([3]; 10 min after administration): 5.26 ± 1.78 % ID/g
Radioactivity distribution Stomach ([3]; 10 min after administration): 1.03 ± 0.28 % ID/g
Radioactivity distribution Testis ([3]; 10 min after administration): 0.07 ± 0.02 % ID/g
Radioactivity distribution Thyroid gland ([3]; 10 min after administration): 3.54 ± 0.37 % ID/g
Radioactivity distribution Whole brain ([3]; 10 min after administration): 0.02 ± 0.00 % ID/g
Adrenal gland/blood ratio of radioactivity accumulation ([3]; 30 min after administration): 40.26 ± 12.64
Adrenal gland/fat ratio of radioactivity accumulation ([3]; 30 min after administration): 147.73 ± 74.06
Adrenal gland/kidney ratio of radioactivity accumulation ([3]; 30 min after administration): 17.90 ± 4.66
Adrenal gland/liver ratio of radioactivity accumulation ([3]; 30 min after administration): 13.82 ± 3.67
Adrenal gland/muscle ratio of radioactivity accumulation ([3]; 30 min after administration): 110.91 ± 25.83
Adrenal gland/small intestine ratio of radioactivity accumulation ([3]; 30 min after administration): 9.24 ± 1.46
Radioactivity distribution Adrenal gland ([3]; 30 min after administration): 16.93 ± 3.32 % ID/g
Radioactivity distribution Bladder (including urine) ([3]; 30 min after administration): 1.35 ± 0.14 % ID/g
Radioactivity distribution Blood ([3]; 30 min after administration): 0.43 ± 0.05 % ID/g
Radioactivity distribution Fat ([3]; 30 min after administration): 0.12 ± 0.04 % ID/g
Radioactivity distribution Heart ([3]; 30 min after administration): 0.49 ± 0.01 % ID/g
Radioactivity distribution Kidney ([3]; 30 min after administration): 0.95 ± 0.06 % ID/g
Radioactivity distribution Large intestine ([3]; 30 min after administration): 0.19 ± 0.00 % ID/g
Radioactivity distribution Liver ([3]; 30 min after administration): 1.24 ± 0.09 % ID/g
Radioactivity distribution Lung ([3]; 30 min after administration): 0.76 ± 0.04 % ID/g
Radioactivity distribution Muscle (lower limbs) ([3]; 30 min after administration): 0.15 ± 0.01 % ID/g
Radioactivity distribution Remaining whole body ([3]; 30 min after administration): 0.31 ± 0.01 % ID/g
Radioactivity distribution Small intestine ([3]; 30 min after administration): 1.83 ± 0.07 % ID/g
Radioactivity distribution Spleen ([3]; 30 min after administration): 5.44 ± 1.82 % ID/g
Radioactivity distribution Stomach ([3]; 30 min after administration): 2.24 ± 0.39 % ID/g
Radioactivity distribution Testis ([3]; 30 min after administration): 0.12 ± 0.00 % ID/g
Radioactivity distribution Thyroid gland ([3]; 30 min after administration): 9.97 ± 0.74 % ID/g
Radioactivity distribution Whole brain ([3]; 30 min after administration): 0.02 ± 0.00 % ID/g
Adrenal gland/blood ratio of radioactivity accumulation ([3]; 60 min after administration): 29.41 ± 3.13
Adrenal gland/fat ratio of radioactivity accumulation ([3]; 60 min after administration): 105.17 ± 28.98
Adrenal gland/kidney ratio of radioactivity accumulation ([3]; 60 min after administration): 18.87 ± 3.12
Adrenal gland/liver ratio of radioactivity accumulation ([3]; 60 min after administration): 16.66 ± 3.13
Adrenal gland/muscle ratio of radioactivity accumulation ([3]; 60 min after administration): 95.38 ± 22.07
Adrenal gland/small intestine ratio of radioactivity accumulation ([3]; 60 min after administration): 6.64 ± 2.31
Radioactivity distribution Adrenal gland ([3]; 60 min after administration): 11.65 ± 1.54 % ID/g
Radioactivity distribution Bladder (including urine) ([3]; 60 min after administration): 1.27 ± 0.07 % ID/g
Radioactivity distribution Blood ([3]; 60 min after administration): 0.40 ± 0.01 % ID/g
Radioactivity distribution Fat ([3]; 60 min after administration): 0.11 ± 0.02 % ID/g
Radioactivity distribution Heart ([3]; 60 min after administration): 0.35 ± 0.03 % ID/g
Radioactivity distribution Kidney ([3]; 60 min after administration): 0.62 ± 0.08 % ID/g
Radioactivity distribution Large intestine ([3]; 60 min after administration): 0.43 ± 0.19 % ID/g
Radioactivity distribution Liver ([3]; 60 min after administration): 0.70 ± 0.05 % ID/g
Radioactivity distribution Lung ([3]; 60 min after administration): 0.60 ± 0.03 % ID/g
Radioactivity distribution Muscle (lower limbs) ([3]; 60 min after administration): 0.12 ± 0.02 % ID/g
Radioactivity distribution Remaining whole body ([3]; 60 min after administration): 0.33 ± 0.02 % ID/g
Radioactivity distribution Small intestine ([3]; 60 min after administration): 1.85 ± 0.44 % ID/g
Radioactivity distribution Spleen ([3]; 60 min after administration): 5.27 ± 0.89 % ID/g
Radioactivity distribution Stomach ([3]; 60 min after administration): 4.35 ± 0.25 % ID/g
Radioactivity distribution Testis ([3]; 60 min after administration): 0.15 ± 0.01 % ID/g
Radioactivity distribution Thyroid gland ([3]; 60 min after administration): 19.76 ± 1.03 % ID/g
Radioactivity distribution Whole brain ([3]; 60 min after administration): 0.02 ± 0.00 % ID/g
SMILES: [123I]c1ccc2nc(-c3cncc(Cn4ccnc4)c3)n(C3CC3)c2c1 [[^123I] 602, 1-Cyclopropyl-2-[3-(1H-imidazol-1-ylmethyl)pyridin-5-yl]-6-[^123I]iodo-1H-benzimidazole]
B2/B1 accumulation ratio [2]: 2.06
B2 (PSL value, aldosterone-producing adenoma) ([2]; site 71a): 6142
B1 (PSL value, normal adrenal cortex) ([2]; site 72a): 2981
